Test results taken from patent publication US6737383B1, “Herbicidal oxadiazolidines” (priority 1999, dated 2004).

Legend:
bedstraw = assay: Test B pre/postemergence bedstraw; type: in vivo, Galium aparine
Method in brief: (§1)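 Test chemicals in a non-phytotoxic solvent mixture with surfactant were sprayed preemergence onto planted seeds and postemergence onto plants 2 to 18 cm tall (1- to 4-leaf stage). After twelve to sixteen days in a greenhouse, injury was visually rated against untreated controls from 0 (no effect) to 10 (complete control).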

blackgrass = assay: Test B pre/postemergence blackgrass; type: in vivo, Alopecurus myosuroides
Method in brief: as §1

surinam grass = assay: Test B pre/postemergence surinam grass; type: in vivo, Brachiaria decumbens
Method in brief: as §1

cocklebur = assay: Test B pre/postemergence cocklebur; type: in vivo, Xanthium strumarium
Method in brief: as §1

corn = assay: Test B pre/postemergence corn; type: in vivo, Zea mays
Method in brief: as §1

morningglory = assay: Test B pre/postemergence morningglory; type: in vivo, Ipomoea hederacea
Method in brief: as §1

pigweed = assay: Test B pre/postemergence pigweed; type: in vivo, Amaranthus retroflexus
Method in brief: as §1

rape = assay: Test B pre/postemergence rape; type: in vivo, Brassica napus
Method in brief: as §1

velvetleaf = assay: Test B pre/postemergence velvetleaf; type: in vivo, Abutilon theophrasti
Method in brief: as §1

wheat = assay: Test B pre/postemergence wheat; type: in vivo, Triticum aestivum
Method in brief: as §1

wild oat = assay: Test B pre/postemergence wild oat; type: in vivo, Avena fatua
Method in brief: as §1

purple nutsedge = assay: Test B pre/postemergence purple nutsedge; type: in vivo, Cyperus rotundus
Method in brief: as §1

rice = assay: Test B flood test rice; type: in vivo, Oryza sativa
Method in brief: (§2)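 Flood test on plants grown to the 2-leaf stage; treated plants kept in greenhouse twelve to sixteen days, then visually rated against controls on a 0 (no effect) to 10 (complete control) scale.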

smallflower flatsedge = assay: Test B flood test smallflower flatsedge; type: in vivo, Cyperus difformis; conditions: for S. Flatsedge plant response rating: scale of 0 to 10 where 0 is no effect and 10 is complete control
Method in brief: as §2

duck salad = assay: Test B flood test duck salad; type: in vivo, Heteranthera limosa
Method in brief: as §2

bamyardgrass = assay: Test B flood test barnyardgrass; type: in vivo, Echinochloa crus-galli
Method in brief: as §2

[1] = Postemergence, Rate 125 g/ha, scale of 0 to 10 where 0 is no effect and 10 is complete control
[2] = Preemergence, Rate 31 g/ha, visual rating, scale 0 to 10 (0 no effect, 10 complete control)
[3] = Preemergence, Rate 62 g/ha, scale 0 to 10 (0 no effect, 10 complete control)
[4] = Preemergence, Rate 125 g/ha, 0 is no effect, 10 is complete control
[5] = Preemergence, Rate 250 g/ha, scale 0 to 10, 0 is no effect, 10 is complete control
[6] = Rate 31 g/ha, Postemergence, scale 0 to 10
[7] = Rate 62 g/ha, Postemergence, scale of 0 to 10 where 0 is no effect and 10 is complete control
[8] = Rate 250 g/ha, Postemergence, scale 0 to 10, 0 is no effect, 10 is complete control
[9] = Postemergence (flood test species), Rate 125 g/ha, scale of 0 to 10 where 0 is no effect and 10 is complete control
[10] = Rate 31 g/ha, Postemergence section (flood test species), scale 0 to 10
[11] = Rate 62 g/ha, Postemergence section, flood test species, scale of 0 to 10 where 0 is no effect and 10 is complete control
[12] = Rate 250 g/ha, Postemergence (flood test), scale 0 to 10, 0 is no effect, 10 is complete control

Compound: Cc1noc(C)c1-n1c(=O)on(C(=O)N(c2ccc(F)cc2F)C(C)C)c1=O [Compound 156]
- Bedstraw plant response rating (bedstraw; [1]): 0
- Bedstraw plant response rating (bedstraw; [2]): 0
- Bedstraw plant response rating (bedstraw; [3]): 0
- Bedstraw plant response rating (0 to 10 scale) (bedstraw; [4]): 0
- Bedstraw plant response rating (bedstraw; [5]): 0
- Bedstraw plant response rating (bedstraw; [6]): 0
- Bedstraw plant response rating (bedstraw; [7]): 0
- Plant response rating, Bedstraw (bedstraw; [8]): 0
- Blackgrass plant response rating (blackgrass; [1]): 0
- Blackgrass plant response rating (blackgrass; [2]): 0
- Blackgrass plant response rating (blackgrass; [3]): 0
- Blackgrass plant response rating (0 to 10 scale) (blackgrass; [4]): 0
- Blackgrass plant response rating (blackgrass; [5]): 3
- Blackgrass plant response rating (blackgrass; [6]): 0
- Blackgrass plant response rating (blackgrass; [7]): 0
- Plant response rating, Blackgrass (blackgrass; [8]): 0
- B. signalgrass plant response rating (surinam grass; [1]): 0
- B. signalgrass plant response rating (surinam grass; [2]): 0
- B. signalgrass plant response rating (surinam grass; [3]): 0
- B. signalgrass plant response rating (0 to 10 scale) (surinam grass; [4]): 0
- B. signalgrass plant response rating (surinam grass; [5]): 2
- B. signalgrass plant response rating (surinam grass; [6]): 0
- B. signalgrass plant response rating (surinam grass; [7]): 0
- Plant response rating, B. signalgrass (surinam grass; [8]): 0
- Cocklebur plant response rating (cocklebur; [1]): 0
- Cocklebur plant response rating (cocklebur; [2]): 0
- Cocklebur plant response rating (cocklebur; [3]): 0
- Cocklebur plant response rating (0 to 10 scale) (cocklebur; [4]): 0
- Cocklebur plant response rating (cocklebur; [5]): 0
- Cocklebur plant response rating (cocklebur; [6]): 0
- Cocklebur plant response rating (cocklebur; [7]): 0
- Plant response rating, Cocklebur (cocklebur; [8]): 0
- Corn plant response rating (corn; [1]): 0
- Corn plant response rating (corn; [2]): 0
- Corn plant response rating (corn; [3]): 0
- Corn plant response rating (0 to 10 scale) (corn; [4]): 0
- Corn plant response rating (corn; [5]): 0
- Corn plant response rating (corn; [6]): 0
- Corn plant response rating (corn; [7]): 0
- Plant response rating, Corn (corn; [8]): 0
- Morningglory plant response rating (morningglory; [1]): 1
- Morningglory plant response rating (morningglory; [2]): 0
- Morningglory plant response rating (morningglory; [3]): 0
- Morningglory plant response rating (0 to 10 scale) (morningglory; [4]): 0
- Morningglory plant response rating (morningglory; [5]): 0
- Morningglory plant response rating (morningglory; [6]): 0
- Morningglory plant response rating (morningglory; [7]): 0
- Plant response rating, Morningglory (morningglory; [8]): 2
- Redroot pigweed plant response rating (pigweed; [1]): 0
- Redroot pigweed plant response rating (pigweed; [2]): 0
- Redroot pigweed plant response rating (pigweed; [3]): 0
- Redroot pigweed plant response rating (0 to 10 scale) (pigweed; [4]): 4
- Redroot pigweed plant response rating (pigweed; [5]): 9
- Redroot pigweed plant response rating (pigweed; [6]): 0
- Redroot pigweed plant response rating (pigweed; [7]): 0
- Plant response rating, Redroot pigweed (pigweed; [8]): 0
- Rape plant response rating (rape; [1]): 0
- Rape plant response rating (rape; [2]): 0
- Rape plant response rating (rape; [3]): 0
- Rape plant response rating (0 to 10 scale) (rape; [4]): 0
- Rape plant response rating (rape; [5]): 0
- Rape plant response rating (rape; [6]): 0
- Rape plant response rating (rape; [7]): 0
- Plant response rating, Rape (rape; [8]): 0
- Velvetleaf plant response rating (velvetleaf; [2]): 0
- Velvetleaf plant response rating (velvetleaf; [3]): 0
- Velvetleaf plant response rating (0 to 10 scale) (velvetleaf; [4]): 0
- Velvetleaf plant response rating (velvetleaf; [5]): 0
- Velvetleaf plant response rating (velvetleaf; [7]): 0
- Plant response rating, Velvetleaf (velvetleaf; [8]): 0
- Wheat plant response rating (wheat; [2]): 0
- Wheat plant response rating (wheat; [3]): 0
- Wheat plant response rating (0 to 10 scale) (wheat; [4]): 0
- Wheat plant response rating (wheat; [5]): 0
- Wheat plant response rating (wheat; [7]): 0
- Plant response rating, Wheat (wheat; [8]): 0
- Wild oats plant response rating (wild oat; [2]): 0
- Wild oats plant response rating (wild oat; [3]): 0
- Wild oats plant response rating (0 to 10 scale) (wild oat; [4]): 0
- Wild oats plant response rating (wild oat; [5]): 0
- Wild oats plant response rating (wild oat; [7]): 0
- Plant response rating, Wild oats (wild oat; [8]): 0
- Nutsedge plant response rating (purple nutsedge; [1]): 0
- Nutsedge plant response rating (purple nutsedge; [2]): 0
- Nutsedge plant response rating (purple nutsedge; [3]): 0
- Nutsedge plant response rating (0 to 10 scale) (purple nutsedge; [4]): 0
- Nutsedge plant response rating (purple nutsedge; [5]): 0
- Nutsedge plant response rating (purple nutsedge; [6]): 0
- Nutsedge plant response rating (purple nutsedge; [7]): 0
- Plant response rating, Nutsedge (purple nutsedge; [8]): 0
- Rice plant response rating (rice; [9]): 0
- Rice plant response rating (rice; [10]): 0
- Rice plant response rating (rice; [11]): 0
- Plant response rating, Rice (rice; [12]): 0
- S. Flatsedge plant response rating (smallflower flatsedge; Postemergence (flood test species), Rate 125 g/ha): 0
- S. Flatsedge plant response rating (smallflower flatsedge; Rate 62 g/ha, Postemergence section, flood test species): 0
- Plant response rating, S. Flatsedge (smallflower flatsedge; [12]): 0
- Ducksalad plant response rating (duck salad; [9]): 0
- Ducksalad plant response rating (duck salad; [10]): 0
- Ducksalad plant response rating (duck salad; [11]): 0
- Plant response rating, Ducksalad (duck salad; [12]): 0
- Barnyardgrass plant response rating (bamyardgrass; [9]): 0
- Barnyardgrass plant response rating (bamyardgrass; [10]): 0
- Barnyardgrass plant response rating (bamyardgrass; [11]): 0
- Plant response rating, Barnyardgrass (bamyardgrass; [12]): 0
